Assays:
α-synuclein = molecular target: T1, α-synuclein (Homo sapiens, UniProt P37840); experiment: α-synuclein fibrillation, Thioflavin-T (Th-T) binding assay; assay type: biochemical; conditions: 25 μM α-synuclein; for inhibition at 50 µM: compound 50 μM
T1 construct: GST (N, cleaved yes); made in house; host or cells: E. coli BL21
Experimental: The protein purity was estimated to be >95% using an SDS gel. Ginsenoside, Rb1, stock solutions (10 mM) were prepared in 100% DMSO, and the final amount of DMSO in the sample solutions was 1%. Samples of 25 μM α-synuclein in PBS were aged alone or with Rb1 at various molar ratios (Rb1:α-synuclein molar ratios of 4:1, 2:1 and 1:1). The samples were placed in 1.5 ml sterile polypropylene tubes, drops of mineral oil were added to prevent sample evaporation, and the tubes were then sealed with parafilm and incubated at 37° C. for 5 days with continuous shaking at 800 rpm in a Thermomixer (Eppendorf). Samples were collected at the indicated time points, and a Thioflavin-T assay was performed immediately at each time point, while the rest of the samples were stored at −80° C. until needed for further analyses.
α-Synuclein fibril formation was monitored by Th-T binding assay. Th-T is a fluorescent dye that interacts with fibrils containing a β-sheet structure. A total of 10 μL of each sample was diluted in 40 μL of Th-T in PBS. Fluorescence was then measured in a 384-well, untreated black micro-well plate (Nunc, Denmark) using a microplate reader (Victor X3 2030, Perkin Elmer) with the excitation and emission wavelengths set at 450 and 486 nm, respectively. To allow for background fluorescence, the fluorescence intensity of a blank PBS solution was subtracted from all readings.
α-Synuclein solution at a concentration of 25 μM was incubated at 37° C. with continuous shaking for 5 days, leading to fibril formation, which was monitored by Th-T fluorescence at regular time intervals. α-Synuclein was incubated with each of Gn Rb1, salvianolic acid B and dihydromyricetin at molar ratios of 4:1, 2:1 and 1:1 (molar ratio Compound: α-synuclein) with a constant α-synuclein concentration of 25 μM.

α-synuclein oligomers = molecular target: T2, α-synuclein oligomers (Homo sapiens, UniProt P37840); experiment: Binding to α-synuclein oligomers: SEC fractions P1-P3 with UV scanning; conditions: compound: α-synuclein 4:1, 100 μM α-synuclein, 5 days
T2 construct: GST (N, cleaved yes); made in house; host or cells: E. coli BL21
Experimental: SEC was carried out using an AKTA FPLC system (GE Healthcare-Sweden) and a superdex 200 column at 4° C., in order to separate the oligomers generated from the aggregation of α-synuclein with the compounds (compound: α-synuclein molar ratio of 4:1). Monomeric α-synuclein at a concentration of 100 μM was aggregated in the presence of the compounds for 5 days as described above. At the end of the aggregation process, the sample was centrifuged for 45 min at 14,000×g at 4° C. generating a supernatant free from insoluble material. Prior to injecting 80% of the generated supernatant, the column was thoroughly equilibrated with SEC running buffer (1×PBS, pH 7.4) and the flow rate was set to 0.1 ml/min (0.5 ml/fraction). The elution of α-synuclein was monitored at absorbance wavelengths of 215 nm, 254 nm, and 280 nm. To determine the elution time of monomeric α-syn, molecular weight standards (ferritin 440 kDa, aldolase 171 kDa, abmumin 68 kDa and chymotrypsinogenA 25 kDa) and monomeric α-synuclein were co-injected into the column and eluted at the same conditions mentioned above.
For the experiments with salvianolic acid B and dihydromyricetin the fractions eluting between 7-8 ml CV were combined and labeled as oligomers (sample P1), and fractions eluting between 12-14 ml CV were combined and labeled as oligomers (sample P2), whereas the fractions eluting in the 14-16 ml CV were combined and labeled as monomers (sample P3). […]
The P1, P2 and P3 samples, representing the oligomeric and monomeric fractions of SEC, were concentrated using a speed vac (CentriVap, Labconco). […] The UV absorbance spectrum was recorded from 200-600 nm in a spectrophotometer (DU-800, Beckman-Coulter) using 10 mm quartz cuvettes (Hellma Analytics-Germany) and employing equal concentrations of the P1, P2 and P3. […]

monomeric α-synuclein = molecular target: T3, monomeric α-synuclein (Homo sapiens, UniProt P37840); experiment: NMR titration into monomeric α-synuclein; assay type: binding; conditions: stoichiometries of up to 6:1 compound: α-synuclein, 100 μM α-synuclein
T3 construct: made in house
Experimental: For NMR studies, recombinant ^15N-labeled α-synuclein was expressed and purified as previously described, resuspended in PBS buffer at pH 6.6. Two-dimensional ^1H-^15N HQSC spectra were acquired for α-synuclein at 100 μM concentration in the absence of Gn Rb1 and in the presence of increasing Gn Rb1: α-synuclein stoichiometries of 1:1, 4:1 and 6:1. Data were collected on a Bruker 900 MHz spectrometer equipped with a cold probe.

[1] = molecular target: T4, preformed α-synuclein fibrils (Homo sapiens, UniProt P37840); experiment: α-synuclein disaggregation assay on preformed fibrils (Th-T); assay type: biochemical; conditions: 25 μM preformed fibrils; for effect on preformed α-synuclein fibrils (Th-T counts): ratios 6:1, 4:1, 2:1, 48 hours, 37° C.
T4 construct: GST (N, cleaved yes); made in house; host or cells: E. coli BL21
Experimental: α-Synuclein solution in PBS (pH 7.4) was aggregated at a concentration of 25 μM as indicated above. The resulting aggregated α-synuclein was incubated either alone or with Gn Rb1 or dihydromyricetin at various molar ratios (compound: α-synuclein molar ratios of 6:1, 4:1 and 2:1). It should be noted that for the purpose of the experiment, the concentration of α-synuclein taken into account was the concentration of fresh α-synuclein. The samples were incubated at 37° C. for 48 hours on a thermomixer with continuous shaking at 800 rpm. Samples were collected at regular time points, and Th-T fluorescence was measured immediately.
Due to their high efficiency to inhibit α-synuclein fibrillation, Gn Rb1 and dihydromyricetin were assessed for their effectiveness on reversing fibrillation. 25 μM of preformed α-synuclein fibrils were incubated at 37° C. in the presence of Gn Rb1 or dihydromyricetin at varying molar ratios (compound: α-synuclein of 6:1, 4:1 and 2:1) for a period of 48 hours. By measuring the Th-T fluorescence counts (FIGS. 7A-7B), the fibril content was estimated at different time points.

[2] = after 5 days of incubation, read-out: inhibition of α-synuclein fibrillation (Th-T fluorescence)

SMILES	inhibition at 25 µM (α-synuclein; compound 25 μM, after 5 days of incubation, read-out: inhibition of α-synuclein fibrillation (Th-T fluorescence)) [%]	inhibition at 50 µM (α-synuclein; [2]) [%]	inhibition of α-synuclein fibrillation (Th-T fluorescence) (α-synuclein; compound 100 μM, after 5 days of incubation)	SEC samples in which compound was detected by UV absorbance (P1, P2 oligomers; P3 monomers) (α-synuclein oligomers)	inhibition percentage of α-synuclein fibrillation (Th-T fluorescence) (α-synuclein; 2 days of incubation, 37° C., all tested concentrations)	reduction of α-synuclein fibrillation (Th-T fluorescence) (α-synuclein; after 5 days of incubation, all tested concentrations)	interaction with monomeric α-synuclein (two-dimensional NMR) (monomeric α-synuclein)	effect on preformed α-synuclein fibrils (Th-T counts) [1]	Th-T counts as fraction of the Th-T counts of the control ([1]; after 4 hours of incubation, ratios 6:1, 4:1, 2:1)	inhibition of α-synuclein fibrillation (Th-T fluorescence) (α-synuclein; compound 25 μM, after 5 days of incubation)	inhibition at 100 µM (α-synuclein; compound 100 μM, after 5 days of incubation, read-out: inhibition of α-synuclein fibrillation (Th-T fluorescence)) [%]
O=C(/C=C/c1ccc(O)c2c1[C@H](C(=O)O[C@H](Cc1ccc(O)c(O)c1)C(=O)O)[C@@H](c1ccc(O)c(O)c1)O2)O[C@H](Cc1ccc(O)c(O)c1)C(=O)O [salvianolic acid B]	~35	~80	completely abolished	detected in the P2 sample							
CC(C)=CCC[C@](C)(O[C@@H]1O[C@H](CO[C@@H]2O[C@H](CO)[C@@H](O)[C@H](O)[C@H]2O)[C@@H](O)[C@H](O)[C@H]1O)[C@H]1CC[C@]2(C)[C@@H]1[C@H](O)C[C@@H]1[C@@]3(C)CC[C@H](O[C@@H]4O[C@H](CO)[C@@H](O)[C@H](O)[C@H]4O[C@@H]4O[C@H](CO)[C@@H](O)[C@H](O)[C@H]4O)C(C)(C)[C@@H]3CC[C@]12C [Gn Rb1, ginsenoside Rb1]				detected only in the oligomeric P2 samples	approximately 90%	approximately 80%	does not interact significantly with monomeric α-synuclein	disaggregated in a dose-dependent fashion	⅕		
O=C1c2c(O)cc(O)cc2O[C@H](c2cc(O)c(O)c(O)c2)[C@H]1O [dihydromyricetin]		40		detected in both P2 and P3				disaggregated preformed α-synuclein fibrils in a dose-dependent fashion		failed to inhibit fibrillation	80

From patent US10488417B2, “Compounds for use as imaging agents” (United Arab Emirates University, priority 2014, dated 2019)
